Data on twelve molecules can be found in patent publication US8481564B2, “Inhibitors of c-fms kinase” (Janssen Pharmaceutica, N.V., priority 2006, dated 2013).

Experiment [1] concerns mouse bone-marrow derived macrophages. As to the kind of experiment: CSF-1-driven mouse bone-marrow derived macrophages assay (BrDU incorporation). The format is cell-based. The note with it: BMDM; CSF-1 stimulated mouse bone-marrow derived macrophages, 30 hrs culture, BrDU incorporation ELISA; read-out: mCSF driven proliferation BMDM (Mouse). As to the method: CSF-1-Driven Mouse Bone-Marrow Derived Macrophages Assay
Macrophages are derived by culturing mouse bone marrow in alpha-MEM supplemented with 10% FCS (fetal calf serum) and 50 ng/ml recombinant mouse CSF-1 in bacteriologic dishes. On the sixth day, macrophages are detached from dishes, washed, and resuspended to 0.1 million cells/ml in alpha-MEM containing 10% FCS. One hundred ul of cell suspension are distributed per well into 96 well culture plates. Wells are further supplemented with the addition of 50 ul media containing 15 ng/ml CSF-1, 3 uM Indomethacin, and 3× of a dilution series of test compounds. The cells are cultured for 30 hrs at 37° C. and 5% CO2. During the final six hours, cultures are supplemented with an additional 30 ul of media containing a 1:500 dilution of bromodeoxyuridine (BrDU). At the end of the culture period, the media is removed and replaced with […] of fixative solution for 30′@room temperature. The fixative is then dispelled from the plates and the plates allowed to air dry. Incorporation of BrDU into the fixed, dried cells is quantified using a specific ELISA (Cat X1327K) from Exalpha Corporation (Watertown Mass.). Background values are determined from wells without BrDU reagent. IC50 values are calculated based on signal from CSF-1 stimulated cells without compound present.
In general terms: ELISA stands for enzyme-linked immunosorbent assay.

The target of the next experiment is CSF-1R (Homo sapiens (Human), UniProt P07333). In words: Fluorescence polarization competition immunoassay (inhibition of CSF-1R phosphorylation of tyrosine on synthetic CSF-1R555-568 peptide). The class given is biochemical. The note with it: CSF-1R fluorescence polarization assay; 0.7 nM CSF-1R, 1 mM ATP, 308 μM peptide; mean of at least three determinations.
Sequence of CSF-1R (P07333 20-972): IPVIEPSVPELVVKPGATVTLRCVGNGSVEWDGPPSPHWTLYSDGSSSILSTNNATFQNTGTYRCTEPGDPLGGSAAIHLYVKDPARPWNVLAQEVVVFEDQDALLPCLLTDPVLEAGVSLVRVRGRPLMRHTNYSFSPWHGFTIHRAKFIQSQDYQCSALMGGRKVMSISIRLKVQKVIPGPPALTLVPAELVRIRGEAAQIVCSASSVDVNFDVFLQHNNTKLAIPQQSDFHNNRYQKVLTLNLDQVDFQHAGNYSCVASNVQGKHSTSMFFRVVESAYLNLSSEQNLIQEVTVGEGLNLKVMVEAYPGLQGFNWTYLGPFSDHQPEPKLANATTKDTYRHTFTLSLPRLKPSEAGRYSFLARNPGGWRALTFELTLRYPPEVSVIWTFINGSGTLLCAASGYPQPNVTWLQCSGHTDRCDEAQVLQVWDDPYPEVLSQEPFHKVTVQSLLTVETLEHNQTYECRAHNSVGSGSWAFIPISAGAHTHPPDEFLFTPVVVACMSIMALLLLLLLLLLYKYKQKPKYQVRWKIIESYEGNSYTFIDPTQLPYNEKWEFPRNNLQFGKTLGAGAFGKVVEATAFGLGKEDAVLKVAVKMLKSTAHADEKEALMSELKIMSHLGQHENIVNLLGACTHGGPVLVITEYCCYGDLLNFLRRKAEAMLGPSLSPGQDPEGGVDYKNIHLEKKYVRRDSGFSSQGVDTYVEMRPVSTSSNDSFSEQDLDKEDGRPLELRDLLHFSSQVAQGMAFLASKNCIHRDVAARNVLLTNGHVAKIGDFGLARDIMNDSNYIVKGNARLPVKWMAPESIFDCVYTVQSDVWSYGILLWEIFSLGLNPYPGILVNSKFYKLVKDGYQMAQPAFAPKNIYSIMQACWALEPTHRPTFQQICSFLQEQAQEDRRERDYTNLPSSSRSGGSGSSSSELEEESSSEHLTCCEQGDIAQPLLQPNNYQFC

Procedure for CSF-1R: Fluorescence Polarization Competition Immunoassay
The kinase reaction was initiated by adding 1 μL of 10 mM ATP in assay buffer. […] Positive and negative control wells were included on each plate, where 4% DMSO in assay buffer was substituted for the compound; in addition, positive control wells received 1.2 μL of 50 mM EDTA before the start of the reaction.
The plates were covered and incubated at room temperature for 80 min. Reactions were stopped by addition of 1.2 μL of 50 mM EDTA. […] The plates were covered, incubated for 30 min at room temperature, and the fluorescence polarization was read on an Analyst plate reader (Molecular Devices). […] Reported IC50 values are the mean of three of at least three determinations.

Turning to `N#Cc1c[nH]c(C(=O)Nc2ccc(C3CC(=O)NC(=O)C3)cc2C2=CCCCC2)n1` [Example 1, 4-Cyano-1H-imidazole-2-carboxylic acid [2-cyclohex-1-enyl-4-(2,6-dioxo-piperidin-4-yl)-phenyl]-amide], the IC50 in experiment [1] was 10 nM.

With `CC1(C)CC=C(c2cc(C3CC(=O)NC(=O)C3)ccc2NC(=O)c2nc(C#N)c[nH]2)CC1` [Example 3, 4-Cyano-1H-imidazole-2-carboxylic acid [2-(4,4-dimethyl-cyclohex-1-enyl)-4-(2,6-dioxo-piperidin-4-yl)-phenyl]-amide], the IC50 in experiment [1] was determined as 7 nM. Still for that read-out and setting: as for `N#Cc1c[nH]c(C(=O)Nc2ccc(C3CNS(=O)(=O)NC3)cc2C2=CCCCC2)n1` [Example 5, 4-Cyano-1H-imidazole-2-carboxylic acid [2-cyclohex-1-enyl-4-(1,1-dioxo-1λ^6-[1,2,6]thiadiazinan-4-yl)-phenyl]-amide], the figure is 60 nM.

In the case of `N#Cc1c[nH]c(C(=O)Nc2cc(CO)c(C3CNS(=O)(=O)NC3)cc2C2=CCCCC2)n1` [Example 6, 4-Cyano-1H-imidazole-2-carboxylic acid [2-cyclohex-1-enyl-4-(1,1-dioxo-1λ^6-[1,2,6]thiadiazinan-4-yl)-5-hydroxymethyl-phenyl]-amide], the IC50 at CSF-1R was determined as 10 nM; in experiment [1], 60 nM. For the molecule `CN1CC(c2ccc(NC(=O)c3nc(C#N)c[nH]3)c(C3=CCC(C)(C)CC3)c2)CN(C)C1=O` [Example 8, 4-Cyano-1H-imidazole-2-carboxylic acid [2-(4,4-dimethyl-cyclohex-1-enyl)-4-(1,3-dimethyl-2-oxo-hexahydro-pyrimidin-5-yl)-phenyl]-amide], the IC50 in experiment [1] turned out to be 3 nM. Same read-out and setting: under `CN1CC(c2ccc(NC(=O)c3nc(C#N)c[nH]3)c(C3=CCCCCC3)c2)CN(C)C1=O` [Example 9, 4-Cyano-1H-imidazole-2-carboxylic acid [2-cyclohept-1-enyl-4-(1,3-dimethyl-2-oxo-hexahydro-pyrimidin-5-yl)-phenyl]-amide] stands 5 nM. On to `CN1CC(c2ccc(NC(=O)c3cc(C#N)c[nH]3)c(C3=CCCCCC3)c2)CN(C)C1=O` [Example 10, 4-Cyano-1H-pyrrole-2-carboxylic acid [2-cyclohept-1-enyl-4-(1,3-dimethyl-2-oxo-hexahydro-pyrimidin-5-yl)-phenyl]-amide], for which the IC50 in experiment [1] was 100 nM. The same measure, in the same setting: as for `CN1CC(c2ccc(NC(=O)c3nc(C#N)c[nH]3)c(C3=CCCCC3)c2)CN(C)S1(=O)=O` [Example 11, 4-Cyano-1H-imidazole-2-carboxylic acid [2-cyclohex-1-enyl-4-(2,6-dimethyl-1,1-dioxo-1λ^6-[1,2,6]thiadiazinan-4-yl)-phenyl]-amide], the figure is 2 nM. As for `N#CN=C1NCC(c2ccc(NC(=O)c3nc(C#N)c[nH]3)c(C3=CCCCC3)c2)CN1` (stereo not drawn) [Example 12, 4-Cyano-1H-imidazole-2-carboxylic acid[4-(2-cyanoimino-hexahydro-pyrimidin-5-yl)-2-cyclohex-1-enyl-phenyl]-amide], the IC50 at CSF-1R stood at 3 nM; in experiment [1], 40 nM. Taken in the same sequence, the figures for `CS(=O)(=O)N=C1NCC(c2ccc(NC(=O)c3nc(C#N)c[nH]3)c(C3=CCCCC3)c2)CN1` (stereo not drawn) [Example 13, 4-Cyano-1H-imidazole-2-carboxylic acid[2-cyclohex-1-enyl-4(2methanesulfonylimino-hexahydro-pyrimidin-5-yl)-phenyl]-amide] were 2 nM and 100 nM. Consider `CN1C(=O)CC(c2ccc(NC(=O)c3nc(C#N)c[nH]3)c(C3=CCCCC3)c2)CC1=O` [Example 14, 4-Cyano-1H-imidazole-2-carboxylic acid[2-cyclohex-1-enyl-4-(1-methyl-2,6-dioxo-piperidin-4-yl)-phenyl]-amide], for which, in experiment [1], the IC50 turned out to be 4 nM. For `N#Cc1c[nH]c(C(=O)Nc2ccc(C3COC(=O)OC3)cc2C2=CCCCC2)n1` [Example 15, 4-Cyano-1H-imidazole-2-carboxylic acid[2-cyclohex-1-enyl-4-(2-oxo-[1,3]dioxan-5-yl)-phenyl]-amide], the IC50 at CSF-1R is over 300 nM.
